“And” between values parts separate entries of the source, which are not always exact repeats. Identical values can stand only once.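 Grown in 96-well plates, cells were treated for 48 hours with each compound at five concentrations. Insufficient inhibition: endpoint recorded as highest concentration tested. Here, GI50 denotes the concentration required for 50% inhibition of growth. TGI is the concentration that stops growth completely.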
Columns and labels:
Assay in all cases: NCI tumour cell line growth inhibition, 48 h
OVCAR-8 ovarian = tested on: OVCAR-8 ovarian
ACHN renal = tested on: ACHN renal
HOP-62 NSCLC = tested on: HOP-62 NSCLC
HS 578T breast = tested on: HS 578T breast
SK-MEL-28 melanoma = tested on: SK-MEL-28 melanoma
SF-539 CNS = tested on: SF-539 CNS
EKVX NSCLC = tested on: EKVX NSCLC
SK-MEL-2 melanoma = tested on: SK-MEL-2 melanoma
SN12C renal = tested on: SN12C renal
SNB-75 CNS = tested on: SNB-75 CNS

Compound | GI50 (OVCAR-8 ovarian) [µM] | TGI (OVCAR-8 ovarian) | GI50 (ACHN renal) [µM] | TGI (ACHN renal) | GI50 (HOP-62 NSCLC) [µM] | TGI (HOP-62 NSCLC) | GI50 (HS 578T breast) [µM] | TGI (HS 578T breast) [µM] | GI50 (SK-MEL-28 melanoma) [µM] | TGI (SK-MEL-28 melanoma) | GI50 (SF-539 CNS) [µM] | TGI (SF-539 CNS) | GI50 (EKVX NSCLC) [µM] | TGI (EKVX NSCLC) [µM] | GI50 (SK-MEL-2 melanoma) [µM] | TGI (SK-MEL-2 melanoma) [µM] | GI50 (SN12C renal) [µM] | TGI (SN12C renal) | GI50 (SNB-75 CNS) [µM] | TGI (SNB-75 CNS) [µM]
C=C(C)[C@@H]1CCC[C@]2(C(=O)O)CC[C@]3(C)[C@@H](CC[C@@H]4[C@@]5(C)C/C(=C/c6ccncc6)C(=O)C(C)(C)[C@@H]5CC[C@]43C)[C@@H]12 | 3.07 | > 100 µM | 2.84 | 11 µM | 2.78 | 8.28 µM | 19.4 | > 100 | 2.1 | 4.58 µM | 2.7 | 11.9 µM | 3.2 | 46.3 | 2.59 | 6.72 | 3.71 | > 100 µM | – | –
COc1ccc(-n2nc(C)c3c2N(C)C2(C)C[C@@H]4C3(C)[C@@H]3CC4(C2)N(C)c2c(c(C)nn2-c2ccc(OC)cc2)[C@H]3C)cc1 (stereo partly specified) | 4.19 | 92.7 µM | 6.13 | > 100 µM | 3.1 | 10.5 µM | 4.27 | 98 | 15.2 | > 100 µM | 6.49 | > 100 µM | – | – | 7.29 | 23.3 | 8.06 | > 100 µM | – | –
COc1cc(C(=O)/C=C/c2c(C(F)(F)F)nc3sccn23)cc(OC)c1OC | 3.08 | 22.6 µM | 1.82 | 3.66 µM | 1.93 | 3.92 µM | – | – | 1.69 | 3.1 µM | 1.55 | 2.96 µM | 2.72 | 10.7 | 2.26 | 5.09 | 1.56 | 3.69 µM | 1.87 | 4.86
N#Cc1ccc(N2Cc3cc(Cl)ccc3OC3=C2C(=O)N(Cc2ccccc2)C3=O)cc1 | – | – | 0.87 | 2.2 µM | 2.35 | 6.12 µM | 2.62 | 9.25 | 1.62 | 3.41 µM | 1.7 | 3.19 µM | 2.02 | 4.92 | 2.08 | 4.51 | 1.51 | 3.14 µM | 1.24 | 2.53
CCCCCCCCCCCCCCCCCC1=NC(C)(C)CN1CCO | – | – | 1.58 | 2.99 µM | 1.82 | 3.54 µM | 1.66 | 3.93 | 1.81 | 3.2 µM | 1.75 | 3.15 µM | 3.8 | 18.6 | 1.97 | 3.63 | 1.61 | 3.61 µM | 1.81 | 4.01
O=c1c2cc(F)ccc2sc2c(NCCCN3CCCC3)nc3ccccc3c12 | 2.11 | 4.86 µM | 1.69 | 3.18 µM | – | – | 2.18 | 6.22 | 1.97 | 3.85 µM | 1.69 | 3.19 µM | 2.58 | 8.48 | 2.19 | 4.77 | 1.97 | 4.6 µM | 1.43 | 3.14
CC(C)(C)c1ccc(S(=O)(=O)N[C@H]2CC[C@H]3[C@@H]4CCc5cc(O)ccc5[C@H]4CC[C@]23C)cc1 | 2.02 | 4.59 µM | 2.28 | 5.67 µM | 2.07 | 3.98 µM | 2.39 | 6.98 | 1.71 | 3.18 µM | 1.7 | 3.14 µM | – | – | 2.45 | 4.89 | 1.76 | 3.55 µM | 2.08 | 6.38
COc1cc(CC(=O)c2ccc3c(c2)OCO3)cc(OC)c1OC | – | > 100 µM | – | > 100 µM | – | > 100 µM | – | – | – | > 100 µM | – | > 100 µM | – | > 100 | – | > 100 | – | > 100 µM | – | > 100
CC(C)=C1CCC(CN2CCCC2)C1=O (stereo unspecified) | – | > 100 µM | – | 32.7 µM | – | > 100 µM | – | – | – | 48.8 µM | – | > 100 µM | – | > 100 | – | 77.2 | – | 33.1 µM | – | > 100
CCCCCCCCCCCCCCCC(=O)N[C@H]1CCc2cc(OC)c(OC)c(OC)c2-c2ccc(SC)c(=O)cc21 | 3.31 | 8.92 µM and 12.6 µM | 3.88 | 22.4 µM and 19.7 µM | 2.13 | 62.6 µM and 18.2 µM | – | – | – | 24.3 µM and 17.9 µM | 1.24 | 2.08 µM and 3.64 µM | 4.22 | – | – | 4.46 | 2.84 | 9.08 µM and 10.3 µM | 2.96 | –
COc1ccccc1NC(=O)C(=O)C1C(=O)Nc2ccccc2S1=O (stereo unspecified) | – | > 100 µM | – | > 100 µM | – | > 100 µM | – | – | – | > 100 µM | – | > 100 µM | – | > 100 | – | > 100 | – | > 100 µM | – | > 100
CN1C(=O)C23CC4=CC=CC(O)C4N2C(=O)C1(CO)SS3 (stereo unspecified) | – | 0.154 µM | – | 0.334 µM | – | 0.322 µM | – | – | – | 2.26 µM | – | 0.17 µM | – | 1.33 | – | 0.617 | – | 0.139 µM | – | 0.382
COc1ccc(N(Cc2cc(OC)c(OC)c(OC)c2)C2OC(=O)c3ccccc32)cc1 (stereo unspecified) | 0.779 | > 100 µM | 0.69 | > 100 µM | 0.783 | > 100 µM | 0.373 | > 100 | – | > 100 µM | 0.317 | 1.24 µM | – | – | – | – | 0.703 | > 100 µM | – | –
C[C@]12CC[C@@H]3c4ccc(O)cc4CC[C@H]3[C@@H]1CC[C@@H]2NS(=O)(=O)c1ccc(-c2ccccc2)cc1 | 4.69 | > 100 µM | 2.98 | 20.1 µM | 10.5 | > 100 µM | 7.37 | > 100 | 5.52 | 54.6 µM | 3.91 | 15.7 µM | – | – | 3.78 | 13.6 | 2.75 | 10.3 µM | 3.5 | 55.2
COc1cc(C2c3cc4c(cc3[C@@H](Nc3cccc(O)c3)C3COC(=O)[C@H]23)OCO4)cc(OC)c1O (stereo partly specified) | 0.769 | 11.4 µM | 0.356 | 3.56 µM | 0.459 | 4.24 µM | – | – | 0.746 | 20.7 µM | 0.482 | 4.53 µM | – | 15 | – | 15 | 0.688 | 6.82 µM | 0.623 | 14.1

— PubChem BioAssay (NCI)
